Test results: US7550484B2, “Chemokine receptor binding heterocyclic compounds with enhanced efficacy” (Genzyme Corporation, priority 2003, dated 2009)
Values joined by “and” are separate entries in the source; they are usually repeats but may differ in a detail not shown here. Equal entries are not always repeated. Where two headings read alike, the source gives them in different places.

Assays:
[1] = tested on: granulocyte macrophage (CFU-GM), erythroid (BFU-E), and multipotential (CFU-GEMM) progenitor cells; conditions: for Absolute Number Progenitors Per ML Blood, BFU-E / Absolute Number Progenitors Per ML Blood, CFU-GEMM / Absolute Number Progenitors Per ML Blood, CFU-GM: 1 hour post administration; for Absolute Progenitors Per ML Blood, BFU-E / Absolute Progenitors Per ML Blood, CFU-GEMM / Absolute Progenitors Per ML Blood, CFU-GM: 5 mg/Kg single s.c.; for Absolute Progenitors Per ML Blood, BFU-E / Absolute Progenitors Per ML Blood, CFU-GEMM / Absolute Progenitors Per ML Blood, CFU-GM / Fold Change Compared to Time 0, progenitors BFU-E / Fold Change Compared to Time 0, progenitors CFU-GEMM / Fold Change Compared to Time 0, progenitors GM: methylcellulose culture
Description: Progenitors were stimulated to form colonies in vitro with the combination of 1 U/ml rhu Epo, 50 ng/ml rhu SLF, 5% Vol/Vol pokeweed mitogen mouse spleen cell conditioned medium (PWMSCM), and 0.1 mm hemin. Plates were scored 7 days after incubation.

[2] = tested on: WBC count and circulating CD34+ progenitor/stem cells; conditions: single dose of 80 μg/kg, cited from earlier work
[3] = tested on: bone marrow stem cells; conditions: administered within hours after coronary ligation, with or without rhG-CSF
Description: Adult rats are anesthetized and a thoracotomy is performed. The descending branch of the left coronary artery is ligated and not reperfused. […] Control rats are not treated with the reagents. The animals are monitored at one-week intervals by echocardiography and MRI. The experiment is terminated at 2, 6 to 12 weeks post-surgery. On the day of sacrifice, the hemodynamic functions are analyzed for left ventricle-end diastolic pressure, left ventricle-developed pressure and the rate of rise and fall of left ventricle pressure. The heart is then arrested in diastole and perfused via the abdominal aorta to flush residual blood from the vascular network of the myocardium. This is followed by perfusion of the heart with 10% formalin. Several slices are made through the fixed heart and these are embedded in paraffin and sections. The sections are stained and analyzed by light microscopy to determine the size of the infarct in the treated and control animals. Tissue sections from hearts taken at 2 weeks after surgery are stained with antibodies specific for immature, developing myocyte and blood vessel proteins and analyzed by confocal microscopy. The immunohistochemical analysis involves the identification of transcription factors and surface markers expressed in early stages of myocyte development.

[4] = tested on: progenitor cells; conditions: AMD3100 5 mg/Kg s.c. + MIP-1α 5 μg I.V., 11 hours after rhu G-CSF or saline, 1 hour before blood
Description: Groups of mice were randomized to receive control diluent (saline) or G-CSF at a dose of 2.5 μg per mouse, twice a day, for two days via s.c. injection. […] One hour later, the mice were sacrificed and the number of progenitor cells per mL of blood were measured.

[5] = tested on: WBC counts; conditions: human, in vivo
[6] = tested on: white blood cells, CD34 positive progenitor cells, CFU-GM, BFU-E, CFU-GEMM progenitor cells
Description: Five healthy human volunteers having initial white blood cell counts of 4,500-7,500 cells/mm^3 were used in the study. […] Blood samples were obtained via catheter prior to the dose, and at various times up to 24 hours after dosing.
The blood samples were evaluated for total white blood cells, CD34 positive progenitor cells (via FACS analysis) as a percentage of total white blood cells, as well as the absolute numbers per mL and cycling status of granulocyte macrophage (CFU-GM), erythroid (BFU-E), and multipotential (CFU-GEMM) progenitor cells.
All progenitor cell results are based on the scoring of 3 culture plates per assay per point.
For the progenitor cell numbers and cycling status, the numbers of CFU-GM, BFU-E and CFU-GEMM in methylcellulose cultures by stimulation of the cells with 1 Unit (U)/ml recombinant human (rhu) erythropoietin, 100 U/ml rhu granulocyte-macrophage colony stimulating factor (GM-CSF), 100 U/ml rhu interleukin-3 (IL-3) and 50 ng/ml rhu steel factor (SLF=stem cell factor (SCF)). The CFU-GM were also evaluated in agar cultures stimulated with 100 U/ml rhu GM-CSF and 50 ng/ml rhu SLF. For both types of assays, colonies were scored after 14 day incubation in a humidified atmosphere with 5% CO2 and lowered (5%) O2 tension. Cell cycling status of progenitors was measured using a high specific activity tritiated thymidine kill technique as previously described (Broxmeyer, H. E., et al., Exp. Hematol. (1989) 17:455-459).

[7] = tested on: white blood cell count
Description: Eleven human patients having initial white blood cell counts of 4,000-6,500 cells/mm^3 were used in the study. […] Aliquots from this stock solution were added to 50-ml bags of 0.9% saline for intravenous injection in amounts to achieve the desired dosage levels (10 μg/kg-80 μg/kg).
The subjects described in this Example already contained an indwelling peripheral intravenous catheter. […] Blood samples were obtained prior to the dose, and at various times up to 24 hours after dose administration.
Three patients were administered dosages of 10 μg/kg (open circles); 3 patients were administered dosages of 20 μg/kg (solid circles); 3 patients were administered 40 μg/kg (open triangles); and 2 patients were administered 80 μg/kg (closed triangles).

[8] = T = 1 hours after injection, average of 5 donors

## c1cc(CN2CCCNCCNCCCNCC2)ccc1CN1CCCNCCNCCCNCC1 [AMD3100, 1,1′-[1,4-phenylenebis(methylene)]-bis-1,4,8,11-tetra-azacyclotetradecane]
[1]; 1 mg/kg single s.c.
  Absolute Number Progenitors Per ML Blood, BFU-E: 62 Per ML Blood
  Absolute Number Progenitors Per ML Blood, CFU-GEMM: 27.1 Per ML Blood
  Absolute Number Progenitors Per ML Blood, CFU-GM: 424 Per ML Blood
[1]; 2.5 mg/kg single s.c.
  Absolute Number Progenitors Per ML Blood, BFU-E: 98.9 Per ML Blood
  Absolute Number Progenitors Per ML Blood, CFU-GEMM: 70.6 Per ML Blood
  Absolute Number Progenitors Per ML Blood, CFU-GM: 687.6 Per ML Blood
[1]; 15″
  Absolute Progenitors Per ML Blood, BFU-E: 134.5 Per ML Blood
  Absolute Progenitors Per ML Blood, CFU-GEMM: 90.4 Per ML Blood
  Absolute Progenitors Per ML Blood, CFU-GM: 791.6 Per ML Blood
[1]; 30″
  Absolute Progenitors Per ML Blood, BFU-E: 209.3 Per ML Blood
  Absolute Progenitors Per ML Blood, CFU-GEMM: 113.5 Per ML Blood
  Absolute Progenitors Per ML Blood, CFU-GM: 1805.5 Per ML Blood
[1]; 120″
  Absolute Progenitors Per ML Blood, BFU-E: 102.3 Per ML Blood
  Absolute Progenitors Per ML Blood, CFU-GEMM: 47.6 Per ML Blood
  Absolute Progenitors Per ML Blood, CFU-GM: 828.7 Per ML Blood
[1]; 5 mg/kg single s.c.
  Absolute Number Progenitors Per ML Blood, BFU-E: 92.8 Per ML Blood
  Absolute Number Progenitors Per ML Blood, CFU-GEMM: 69.5 Per ML Blood
  Absolute Number Progenitors Per ML Blood, CFU-GM: 608.4 Per ML Blood
[1]; 10 mg/kg single s.c.
  Absolute Number Progenitors Per ML Blood, BFU-E: 120.5 Per ML Blood
  Absolute Number Progenitors Per ML Blood, CFU-GEMM: 79.8 Per ML Blood
  Absolute Number Progenitors Per ML Blood, CFU-GM: 825.6 Per ML Blood
[1]; Time 2′
  Fold Change Compared to Time 0, progenitors BFU-E: 2.07 fold
  Fold Change Compared to Time 0, progenitors CFU-GEMM: 1.85 fold
  Fold Change Compared to Time 0, progenitors GM: 2.86 fold
[1]; Time 15″
  Fold Change Compared to Time 0, progenitors BFU-E: 2.72 fold
  Fold Change Compared to Time 0, progenitors CFU-GEMM: 3.51 fold
  Fold Change Compared to Time 0, progenitors GM: 2.73 fold
[1]; Time 30″
  Fold Change Compared to Time 0, progenitors BFU-E: 4.24 fold
  Fold Change Compared to Time 0, progenitors CFU-GEMM: 4.41 fold
  Fold Change Compared to Time 0, progenitors GM: 6.23 fold
[2]; 6 hour time point
  Peak increase in circulating CD34+ progenitor/stem cells: 6 fold
[2]
  WBC count: 17,000 /μl
[3]
  Expected effect after induction of cardiac ischemia: mobilizes bone marrow stem cells rapidly
[4]
  Mobilization of progenitor cells in combination with mu MIP-1α: additive to greater than additive
[5]
  Time until WBC counts returned to baseline after discontinuation of the infusion: 7 days
[6]; 80 μg/kg single s.c.
  Time of maximal elevation of white blood cell count and CD34 positive progenitor cells post-administration: 6 h
[6]; 80 μg/kg single s.c., 2 Hr, volunteers P1-P5
  Mobilization of white blood cells in individual volunteers: 12.4 ×10^3 WBC's and 21.4 ×10^3 WBC's and 13.5 ×10^3 WBC's
[6]; T = 1, average of 5 donors
  % CHG, CFU-GEMM, methylcellulose culture: 131.8%
  % CHG, CFU-GM, agar culture: 180.8%
  % CHG, CFU-GM, methylcellulose culture: 376.7%
  Fold change, BFU-E, methylcellulose culture, MEAN: 1.99 fold
  Fold change, CFU-GEMM, methylcellulose culture, MEAN: 2.32 fold
  Fold change, CFU-GM, agar culture, MEAN: 2.81 fold
  Fold change, CFU-GM, methylcellulose culture, MEAN: 4.77 fold
[6]; T = 3, average of 5 donors
  % CHG, BFU-E, methylcellulose culture: 221.3%
  % CHG, CFU-GEMM, methylcellulose culture: 332.5%
  % CHG, CFU-GM, agar culture: 754.1%
  % CHG, CFU-GM, methylcellulose culture: 1266.5%
  % CHG, nucleated cellularity PBL-LD: 185.6%
  % CHG, nucleated cellularity PBL-US: 180.2%
  Fold change compared to TIME = 0, nucleated cellularity PBL-LD, MEAN: 2.86 fold
  Fold change compared to TIME = 0, nucleated cellularity PBL-US, MEAN: 2.80 fold
  Fold change, BFU-E, methylcellulose culture, MEAN: 3.21 fold
  Fold change, CFU-GEMM, methylcellulose culture, MEAN: 4.33 fold
  Fold change, CFU-GM, agar culture, MEAN: 8.54 fold
  Fold change, CFU-GM, methylcellulose culture, MEAN: 13.66 fold
[6]; T = 6, average of 5 donors
  % CHG, BFU-E, methylcellulose culture: 500.5%
  % CHG, CFU-GEMM, methylcellulose culture: 907.2%
  % CHG, CFU-GM, agar culture: 1692.8%
  % CHG, CFU-GM, methylcellulose culture: 2070.6%
  % CHG, nucleated cellularity PBL-LD: 266.3%
  % CHG, nucleated cellularity PBL-US: 225.8%
  Fold change compared to TIME = 0, nucleated cellularity PBL-LD, MEAN: 3.66 fold
  Fold change compared to TIME = 0, nucleated cellularity PBL-US, MEAN: 3.26 fold
  Fold change, BFU-E, methylcellulose culture, MEAN: 6.01 fold
  Fold change, CFU-GEMM, methylcellulose culture, MEAN: 10.07 fold
  Fold change, CFU-GM, agar culture, MEAN: 17.93 fold
  Fold change, CFU-GM, methylcellulose culture, MEAN: 21.71 fold
[6]; T = 9, average of 5 donors
  % CHG, BFU-E, methylcellulose culture: 334.4%
  % CHG, CFU-GEMM, methylcellulose culture: 425.4%
  % CHG, CFU-GM, methylcellulose culture: 947.3%
  % CHG, nucleated cellularity PBL-LD: 264.3%
  % CHG, nucleated cellularity PBL-US: 209.4%
  Fold change compared to TIME = 0, nucleated cellularity PBL-LD, MEAN: 3.64 fold
  Fold change compared to TIME = 0, nucleated cellularity PBL-US, MEAN: 3.09 fold
  Fold change, BFU-E, methylcellulose culture, MEAN: 4.34 fold
  Fold change, CFU-GEMM, methylcellulose culture, MEAN: 5.25 fold
  Fold change, CFU-GM, methylcellulose culture, MEAN: 10.47 fold
[6]; T = 9, average of donors
  % CHG, CFU-GM, agar culture: 924.9%
  Fold change, CFU-GM, agar culture, MEAN: 10.25 fold
[6]; T = 24, average of 5 donors
  % CHG, BFU-E, methylcellulose culture: 26.3%
  % CHG, CFU-GEMM, methylcellulose culture: 53.2%
  % CHG, CFU-GM, methylcellulose culture: 55.5%
  % CHG, nucleated cellularity PBL-US: 7.0%
  Fold change compared to TIME = 0, nucleated cellularity PBL-LD, MEAN: 1.05 fold
  Fold change compared to TIME = 0, nucleated cellularity PBL-US, MEAN: 1.07 fold
  Fold change, BFU-E, methylcellulose culture, MEAN: 1.26 fold
  Fold change, CFU-GEMM, methylcellulose culture, MEAN: 1.53 fold
  Fold change, CFU-GM, methylcellulose culture, MEAN: 1.56 fold
[6]; T = 24, average of donors
  % CHG, CFU-GM, agar culture: 108.3%
  Fold change, CFU-GM, agar culture, MEAN: 2.08 fold
[6]; [8]
  % CHG, nucleated cellularity PBL-LD: 86.2%
  % CHG, nucleated cellularity PBL-US: 68.6%
  Fold change compared to TIME = 0, nucleated cellularity PBL-LD, MEAN: 1.86 fold
  Fold change compared to TIME = 0, nucleated cellularity PBL-US, MEAN: 1.69 fold
[6]; all five donors
  Time of maximal fold increases in circulating levels of progenitor cells after injection: 6 h
[7]; all patients, 10-80 μg/kg intravenous, succeeding 5-10 hours after administration
  Change of white blood cell count: marked increase in white blood cell count
[7]; one patient, 80 μg/kg intravenous, from 6,000 cells/mm^3
  Peak white blood cell count: 19,000 cells/mm^3
[7]; patient showing the least response, 20 μg/kg intravenous, from about 6,300 cells/mm^3
  White blood cell count after increase: about 9,000 cells/mm^3
